How the values were obtained:
[1] = target: Glucocorticoid receptor (GR) (Homo sapiens (Human), UniProt P04150); test: Glucocorticoid receptor transactivation, MMTV-bla HeLa CELLSENSOR reporter assay, agonist mode; assay type: cell-based; settings: for % Activation at 100 nM: control compound dexamethasone; for EC50: 5 hours incubation, maximum concentration 100 nM
GAL4(DBD)-MR(LBD) = GAL4(DBD)-MR(LBD) (Homo sapiens (Human), UniProt P08235); test: Mineralocorticoid receptor transactivation, UAS-bla HEK 293T CELLSENSOR reporter assay, agonist mode; assay type: cell-based; settings: for % Activation at 100 nM: control compound aldosterone; for EC50: 16 hours incubation, maximum concentration 100 nM, read-out: EC50 (nM) MR (Table 4: mineralocorticoid receptor potency)
Protocol: Mineralocorticoid receptor (MR) activation potency was assessed using a HEK 293T cell line containing the UAS-bla reporter (UAS-bla HEK 293T CELLSENSOR®). This cell line was stably cotransfected with an expression construct containing β-lactamase cDNA under control of the GAL4 Upstream Activator Sequence (UAS) and another expression construct encoding for the fusion protein GAL4(DBD)-MR(LBD). […] All assays were performed as 10-point dose responses using a half log-fold dilution series starting with a maximum compound concentration of 100 nM. The compounds were incubated for 16 hours. The activation of the fusion protein GAL4(DBD)-MR(LBD) leads to expression of the reporter β-lactamase which is detected by the conversion of a FRET substrate in a ratiometric assay format. This functional assay allows for measurement of receptor agonism by compounds and can be used to determine compound potency and selectivity. Assay reproducibility was determined by calculating Z′ values for untreated versus maximum stimulation. The Z′ value was greater than 0.6, indicating good reproducibility of the assay format.

[2] = patients; eye drops; compared to synthetic GCs such as dexamethasone, prednisolone, fluorometholone; cited from earlier work

Chain of GAL4(DBD)-MR(LBD) (P08235 726-964): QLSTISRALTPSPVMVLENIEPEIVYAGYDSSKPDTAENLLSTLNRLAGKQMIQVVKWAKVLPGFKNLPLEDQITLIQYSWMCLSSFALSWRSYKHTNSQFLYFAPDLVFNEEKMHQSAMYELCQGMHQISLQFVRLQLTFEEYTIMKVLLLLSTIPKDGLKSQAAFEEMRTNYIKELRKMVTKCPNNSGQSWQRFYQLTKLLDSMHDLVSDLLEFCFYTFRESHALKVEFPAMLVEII
Chain of Glucocorticoid receptor (GR) (P04150 whole entry, the tested form may be a part): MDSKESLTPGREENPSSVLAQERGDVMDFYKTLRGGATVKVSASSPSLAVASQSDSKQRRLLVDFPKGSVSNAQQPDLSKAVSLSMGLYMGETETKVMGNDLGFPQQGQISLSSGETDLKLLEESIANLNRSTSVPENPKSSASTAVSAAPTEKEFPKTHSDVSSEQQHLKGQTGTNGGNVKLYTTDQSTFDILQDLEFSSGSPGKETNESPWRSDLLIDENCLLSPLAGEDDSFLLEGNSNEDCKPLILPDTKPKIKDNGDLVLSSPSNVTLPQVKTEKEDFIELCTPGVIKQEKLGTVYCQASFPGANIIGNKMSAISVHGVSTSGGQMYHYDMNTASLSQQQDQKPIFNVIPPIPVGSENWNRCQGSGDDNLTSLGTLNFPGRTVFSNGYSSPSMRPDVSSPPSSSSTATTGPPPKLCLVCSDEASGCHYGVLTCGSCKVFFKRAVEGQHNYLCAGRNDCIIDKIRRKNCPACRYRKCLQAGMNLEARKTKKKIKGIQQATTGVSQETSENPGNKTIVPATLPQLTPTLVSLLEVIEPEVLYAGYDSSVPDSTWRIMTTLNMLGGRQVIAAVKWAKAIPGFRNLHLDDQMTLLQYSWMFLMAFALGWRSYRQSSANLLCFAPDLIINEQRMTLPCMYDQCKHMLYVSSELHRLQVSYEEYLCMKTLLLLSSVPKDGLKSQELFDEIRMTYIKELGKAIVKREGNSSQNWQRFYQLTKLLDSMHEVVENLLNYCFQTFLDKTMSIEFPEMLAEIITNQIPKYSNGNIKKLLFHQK

Row | SMILES | % Activation at 100 nM [1] [%] | EC50 [1] [nM] | % Activation at 100 nM (GAL4(DBD)-MR(LBD)) [%] | EC50 (GAL4(DBD)-MR(LBD)) [nM] | effect on intraocular pressure [2]
1 | CCCCCCC(=O)O[C@]1(C(=O)CO)CC[C@H]2[C@@H]3CCC4=CC(=O)CC[C@]4(C)[C@H]3[C@@H](O)C[C@@]21C [drawing 15] | 47 | 6.04 |  |  | 
2 | CCCC(=O)O[C@]1(C(=O)CO)CC[C@H]2[C@@H]3CCC4=CC(=O)CC[C@]4(C)[C@H]3[C@@H](O)C[C@@]21C [drawing 24] |  |  | 77 | 2.94 | 
3 | CC(C)C(=O)O[C@]1(C(=O)CO)CC[C@H]2[C@@H]3CCC4=CC(=O)CC[C@]4(C)[C@H]3[C@@H](O)C[C@@]21C [drawing 30] |  |  | 62 | 15.6 | 
4 | C[C@]12CCC(=O)C=C1CC[C@@H]1[C@@H]2[C@@H](O)C[C@@]2(C)[C@H]1CC[C@]2(OC(=O)C1CCCC1)C(=O)CO [drawing 31] |  |  | 27 | > 100 | 
5 | C[C@]12CCC(=O)C=C1CC[C@@H]1[C@@H]2[C@@H](O)C[C@@]2(C)[C@H]1CC[C@]2(O)C(=O)CO [cortisol] |  |  |  |  | minimal effect on intraocular pressure
6 | C[C@]12CCC(=O)C=C1CC[C@@H]1[C@@H]2[C@@H](O)C[C@@]2(C)[C@H]1CC[C@]2(OC(=O)Cc1ccccc1)C(=O)CO [drawing 22] |  |  | 81 | 2.85 | 
7 | CCC(=O)O[C@]1(C(=O)CO)CC[C@H]2[C@@H]3CCC4=CC(=O)CC[C@]4(C)[C@H]3[C@@H](O)C[C@@]21C [drawing 16] | 85 | 6.31 |  |  | 
8 | C[C@]12CCC(=O)C=C1CC[C@@H]1[C@@H]2[C@@H](O)C[C@@]2(C)[C@H]1CC[C@]2(OC(=O)c1ccccc1)C(=O)CO [drawing 28] |  |  | 62 | 7.46 | 
9 | CCCCCCC(=O)O[C@]1(C(=O)CO)CC[C@H]2[C@@H]3CCC4=CC(=O)CC[C@]4(C)[C@H]3[C@@H](O)C[C@@]21C [drawing 19] | 15 | > 100 |  |  | 
10 | C[C@]12CCC(=O)C=C1CC[C@@H]1[C@@H]2[C@@H](O)C[C@@]2(C)[C@H]1CC[C@]2(O)C(=O)CO [drawing 23] |  |  | 75 | 2.9 | 
11 | CCCCCC(=O)O[C@]1(C(=O)CO)CC[C@H]2[C@@H]3CCC4=CC(=O)CC[C@]4(C)[C@H]3[C@@H](O)C[C@@]21C [drawing 27] |  |  | 64 | 5.68 | 
12 | C[C@]12CCC(=O)C=C1CC[C@@H]1[C@@H]2[C@@H](O)C[C@@]2(C)[C@H]1CC[C@]2(OC(=O)c1ccccc1)C(=O)CO [drawing 12] | 85 | 1.41 |  |  | 
13 | CCCC(=O)O[C@]1(C(=O)CO)CC[C@H]2[C@@H]3CCC4=CC(=O)CC[C@]4(C)[C@H]3[C@@H](O)C[C@@]21C [drawing 13] | 86 | 1.97 |  |  | 
14 | CCC(=O)O[C@]1(C(=O)CO)CC[C@H]2[C@@H]3CCC4=CC(=O)CC[C@]4(C)[C@H]3[C@@H](O)C[C@@]21C [drawing 25] |  |  | 76 | 3.17 | 
15 | C[C@]12CCC(=O)C=C1CC[C@@H]1[C@@H]2[C@@H](O)C[C@@]2(C)[C@H]1CC[C@]2(OC(=O)Cc1ccccc1)C(=O)CO [drawing 20] | 5 | > 100 |  |  | 
16 | C[C@]12CCC(=O)C=C1CC[C@@H]1[C@@H]2[C@@H](O)C[C@@]2(C)[C@H]1CC[C@]2(O)C(=O)CO [drawing 18] | 43 |  |  |  | 
17 | CC(C)C(=O)O[C@]1(C(=O)CO)CC[C@H]2[C@@H]3CCC4=CC(=O)CC[C@]4(C)[C@H]3[C@@H](O)C[C@@]21C [drawing 17] | 84 | 7.07 |  |  | 
18 | CCCCCCC(=O)O[C@]1(C(=O)CO)CC[C@H]2[C@@H]3CCC4=CC(=O)CC[C@]4(C)[C@H]3[C@@H](O)C[C@@]21C [drawing 26] |  |  | 72 | 5.27 | 
19 | CCCCCCC(=O)O[C@]1(C(=O)CO)CC[C@H]2[C@@H]3CCC4=CC(=O)CC[C@]4(C)[C@H]3[C@@H](O)C[C@@]21C [drawing 29] |  |  | 56 | 9.29 | 
20 | C[C@]12CCC(=O)C=C1CC[C@@H]1[C@@H]2[C@@H](O)C[C@@]2(C)[C@H]1CC[C@]2(OC(=O)C1CCCC1)C(=O)CO [drawing 11] | 88 | 1.35 |  |  | 
21 | CCCCCC(=O)O[C@]1(C(=O)CO)CC[C@H]2[C@@H]3CCC4=CC(=O)CC[C@]4(C)[C@H]3[C@@H](O)C[C@@]21C [drawing 14] | 65 | 3.25 |  |  | 

Reference: patent US10188667B2, “Pharmaceutical compositions and methods of use of 4-pregenen-11β-17-21-triol-3,20-dione derivatives” (ALLERGAN, INC., priority 2011, dated 2019)
